Experimental data taken from ChEMBL document CHEMBL5137114, “Discovery of IHMT-MST1-58 as a Novel, Potent, and Selective MST1 Inhibitor for the Treatment of Type 1/2 Diabetes” (J Med Chem, 2022).
Activity calls are given as the source filed them. No cut-off for these calls is given here.

Key:
[1] = AUC (0 to t) in mouse at 10 mg/kg, po measured up to 24 hrs by LC-MS/MS analysis; type: ADME, organism-based; design: time < 24 hrs, dose 10 mg/kg, route po; conditions: in vivo
[2] = Oral bioavailability in mouse at 10 mg/kg measured up to 24 hrs by LC-MS/MS analysis; type: ADME, organism-based; conditions: in vivo
[3] = biological target: T1, Serine/threonine-protein kinase 4 (Homo sapiens, UniProt Q13043); assay: Binding affinity to wild-type human full length MST1 (M1 to F487 residues) expressed in bacterial expression system by Kinomescan method
T1 sequence (Q13043 whole entry): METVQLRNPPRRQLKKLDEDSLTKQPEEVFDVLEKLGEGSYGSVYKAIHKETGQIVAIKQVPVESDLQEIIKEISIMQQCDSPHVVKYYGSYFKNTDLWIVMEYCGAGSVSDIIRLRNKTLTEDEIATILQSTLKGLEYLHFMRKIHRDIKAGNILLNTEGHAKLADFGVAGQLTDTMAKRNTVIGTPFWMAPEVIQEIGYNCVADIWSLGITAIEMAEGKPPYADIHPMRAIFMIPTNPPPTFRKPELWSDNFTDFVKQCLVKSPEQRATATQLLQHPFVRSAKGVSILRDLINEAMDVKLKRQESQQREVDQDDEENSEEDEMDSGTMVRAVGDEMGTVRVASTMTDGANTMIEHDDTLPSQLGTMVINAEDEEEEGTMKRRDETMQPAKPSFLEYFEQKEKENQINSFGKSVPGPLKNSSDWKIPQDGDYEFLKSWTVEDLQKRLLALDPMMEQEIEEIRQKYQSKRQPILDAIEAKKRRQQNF

[4] = tested on: Serine/threonine-protein kinase 4 (Rattus norvegicus); assay: Inhibition of INF-gamma-stimulated MST1 in rat INS1 cells assessed as reduction in MOB1 autophosphorylation incubated for 12 hrs by Western blotting analysis; conditions: dose 0.1-10 µM, DDE = dose-dependent effect
[5] = Toxicity in high fat diet-STZ-induced C57BL/6J mouse model of type 2 diabetes assessed as effect on pancreas morphology at 50 mg/kg, po qd by H and E staining based analysis; type: organism-based; conditions: in vivo
[6] = AUC (0 to t) in Beagle dog at 1 mg/kg, iv measured up to 12 hrs by LC-MS/MS analysis; type: ADME, organism-based, Canis lupus familiaris; design: time < 12 hrs, dose 1 mg/kg, route iv; conditions: in vivo
[7] = AUC (0 to t) in mouse at 1 mg/kg, iv measured up to 12 hrs by LC-MS/MS analysis; type: ADME, organism-based; design: time < 12 hrs, dose 1 mg/kg, route iv; conditions: in vivo
[8] = Toxicity in multi low dose STZ-induced C57BL/6J mouse model of type 1 diabetes assessed as effect on pancreas morphology at 50 mg/kg, po qd in presence of metformin by H and E staining based analysis; type: organism-based; conditions: in vivo
[9] = tested on: RIN-m5F; assay: Protection against IFN-gamma-induced cell damage in rat RIN-m5F cells assessed as increase in cell survival at 0.03 to 0.3 uM incubated for 48 hrs by Cell Titer-Glo assay; type: functional, cell-based; conditions: dose 0.03-0.3 µM
[10] = Half life in mouse at 10 mg/kg, po measured up to 24 hrs by LC-MS/MS analysis; type: ADME, organism-based; conditions: in vivo
[11] = tested on: Serine/threonine-protein kinase 4 (Rattus norvegicus); assay: Inhibition of IL-1beta-stimulated MST1 phosphorylation in rat INS1 cells incubated for 12 hrs by Western blotting analysis; conditions: dose 0.1-10 µM, DDE = dose-dependent effect
[12] = tested on: Mus musculus; assay: Antidiabetic activity against 8 hrs fasted multi low dose STZ-induced C57BL/6J mouse model of type 1 diabetes assessed as decrease in fasting blood glucose level at 50 mg/kg, po administered measured immediately (reference value: 19.3 mmol/L); type: functional
[13] = tested on: Mus musculus; assay: Antidiabetic activity against multi low dose STZ-induced C57BL/6J mouse model of type 1 diabetes assessed as food intake at 50 mg/kg, po administered for 78 to 79 days (reference value: 4.7 g/day); type: functional; conditions: time 78-79 day
[14] = tested on: Mus musculus; assay: Antidiabetic activity in 12 to 14 hrs fasted high fat diet-STZ-induced C57BL/6J mouse model of type 2 diabetes assessed as reduction on blood glucose at 50 mg/kg, po qd pretreated with compound followed by glucose challenge measured upto 180 mins by IPGTT assay; type: functional, organism-based
[15] = Half life in Sprague-Dawley rat at 10 mg/kg, po measured up to 24 hrs by LC-MS/MS analysis; type: ADME, organism-based; conditions: in vivo
[16] = Cmax in mouse Pancreas at 50 mg/kg, po measured up to 24 hrs by LC-MS/MS analysis; type: ADME, organism-based; design: dose 50 mg/kg, time < 24 hrs, route po
[17] = AUC (0 to t) in Sprague-Dawley rat at 10 mg/kg, po measured up to 24 hrs by LC-MS/MS analysis; type: ADME, organism-based; design: time < 24 hrs, dose 10 mg/kg, route po; conditions: in vivo
[18] = Half life in Sprague-Dawley rat at 1 mg/kg, iv measured up to 12 hrs by LC-MS/MS analysis; type: ADME, organism-based; conditions: in vivo
[19] = tested on: Mus musculus; assay: Antidiabetic activity against 8 hrs fasted multi low dose STZ-induced C57BL/6J mouse model of type 1 diabetes assessed as decrease in fasting blood glucose level at 50 mg/kg, po administered for 77 days (reference value: 22.3 mmol/L); type: functional; conditions: time 77 day
[20] = tested on: Mus musculus; assay: Antidiabetic activity in high fat diet-STZ-induced C57BL/6J mouse model of type 2 diabetes assessed as reduction in HbA1c level at 50 mg/kg, po qd (reference value: 8.6 %); type: functional; design: scale not given: the % may be the effect or the level left
[21] = tested on: INS1; assay: Protection against TNF-alpha-induced damage in rat INS1 cells assessed as increase in cell survival at 0.03 to 0.3 uM incubated for 48 hrs by Cell Titer-Glo assay; type: functional, cell-based; conditions: dose 0.03-0.3 µM
[22] = AUC (0 to t) in Beagle dog at 10 mg/kg, po measured up to 24 hrs by LC-MS/MS analysis; type: ADME, organism-based, Canis lupus familiaris; design: dose 10 mg/kg, time < 24 hrs, route po; conditions: in vivo
[23] = tested on: Mus musculus; assay: Antidiabetic activity against 8 hrs fasted multi low dose STZ-induced C57BL/6J mouse model of type 1 diabetes assessed as decrease in fasting blood glucose level at 50 mg/kg, po administered for 77 days in presence of metformin (reference value: 22.3 mmol/L); type: functional; conditions: time 77 day
[24] = Cytotoxicity against rat RIN-m5F cells at 10 uM incubated for 72 hrs by Cell Titer-Glo assay; type: toxicity, cell-based
[25] = AUC (0 to t) in mouse Pancreas at 50 mg/kg, po measured up to 24 hrs by LC-MS/MS analysis; type: ADME, organism-based; design: time < 24 hrs, dose 50 mg/kg, route po
[26] = Cmax in mouse at 1 mg/kg, iv measured up to 12 hrs by LC-MS/MS analysis; type: ADME, organism-based; design: time < 12 hrs, dose 1 mg/kg, route iv; conditions: in vivo
[27] = tested on: Mus musculus; assay: Antidiabetic activity against multi low dose STZ-induced C57BL/6J mouse model of type 1 diabetes assessed as food intake at 50 mg/kg, po administered for 78 to 79 days in presence of metformin (reference value: 4.7 g/day); type: functional; conditions: time 78-79 day
[28] = tested on: Mus musculus; assay: Antidiabetic activity against multi low dose STZ-induced C57BL/6J mouse model of type 1 diabetes assessed as food intake at 50 mg/kg, po administered for 1 to 2 days in presence of metformin (reference value: 4.5 g/day); type: functional; conditions: time 1-2 day
[29] = tested on: RIN-m5F; assay: Protection against IL-1beta-induced cell damage in rat RIN-m5F cells assessed as increase in cell survival at 0.03 to 0.3 uM incubated for 48 hrs by Cell Titer-Glo assay; type: functional, cell-based; conditions: dose 0.03-0.3 µM
[30] = Cmax in mouse plasma at 50 mg/kg, po measured up to 24 hrs by LC-MS/MS analysis; type: ADME, organism-based; design: dose 50 mg/kg, time < 24 hrs, route po

AUC(0-t) at 24 h [1]: 5580 ng·h/mL
bioavailability [2]: 111%
Kd [3]: 240 nM
inhibition [4]: Dde
AUC(0-t) at 12 h [6]: 764 ng·h/mL
AUC(0-t) at 12 h [7]: 501 ng·h/mL
half-life [10]: 1.81 h
inhibition [11]: Dde
half-life [15]: 3.03 h
Cmax [16]: 12200 ng/mL
AUCt [17]: 4858 ng·h/mL
half-life [18]: 3.51 h
AUC(0-t) at 24 h [22]: 4940 ng·h/mL
AUC(0-t) at 24 h [25]: 51400 ng·h/mL
Cmax [26]: 1240 ng/mL
Cmax [30]: 3990 ng/mL
SMILES: Cc1ccccc1C1C(=O)N(C)c2cnc(Nc3ccc(S(N)(=O)=O)cc3)nc2N1C (stereo not given)
Activity [5]: Non-Toxic
Activity [8]: Non-Toxic
Activity [9]: Active
Activity [12]: 19.4 mmol/L
Activity [13]: 4 g/day
Activity [14]: Active
Activity [19]: 14.2 mmol/L
Activity [20]: 7.9%
Activity [21]: Active
Activity [23]: 8.9 mmol/L
Activity [24]: Non-Toxic
Activity [27]: 4.1 g/day
Activity [28]: 5.4 g/day
Activity [29]: Active
